From ChEMBL document CHEMBL1134198, “Structure-activity relationships of quinazoline derivatives: dual-acting compounds with inhibitory activities toward both TNF-alpha production and T cell proliferation” (Bioorg Med Chem Lett, 2001)

What was measured:
[1] = Inhibitory concentration against TNF-alpha production from human peripheral blood mononuclear cells stimulated by LPS; format: functional
[2] = Inhibitory concentration against growth of LPS stimulated human peripheral blood mononuclear cells; format: functional
T-cell = assay: Inhibitory concentration against T cell proliferation using concanavalin A stimulated mice spleen cells; format: functional, cell-based; settings: Mus musculus

Molecule	IC50 ([1]; Homo sapiens)	IC50 [1]	IC50 ([2]; Homo sapiens)	IC50 (T-cell)	IC50 [2]
CNc1ccc2ncnc(NCCc3ccc(Cl)cc3)c2c1	> 30 µM		> 30 µM	> 10 µM	
Cc1ccc2ncnc(NCCc3ccc(Cl)cc3)c2c1	> 30 µM		> 30 µM	0.8 µM	
CCNc1cc2ncnc(NCCc3ccc(Cl)cc3)c2cc1[N+](=O)[O-]	> 30 µM		> 30 µM	> 10 µM	
O=C(O)c1cc(/N=N/c2ccc(S(=O)(=O)Nc3ccccn3)cc2)ccc1O [SULFASALAZINE]	> 30 µM		> 30 µM	> 10 µM	
O=[N+]([O-])c1ccc2ncnc(NCCc3ccc(Cl)cc3)c2c1	14.6 µM		> 30 µM	3.2 µM	
O=[N+]([O-])c1cc2c(NCCc3ccc(Cl)cc3)ncnc2cc1Cl	> 30 µM		> 30 µM	> 10 µM	
O=[N+]([O-])c1cc2c(NCCc3ccc(Cl)cc3)ncnc2cc1N1CCN(c2ccccn2)CC1	> 30 µM		> 30 µM	> 10 µM	
O=[N+]([O-])c1cc2c(NCCc3ccc(Cl)cc3)ncnc2cc1N1CCCNCC1	2.1 µM		9.8 µM	0.9 µM	
Nc1ccc2ncnc(NCCc3ccc(Cl)cc3)c2c1	> 30 µM		> 30 µM	2.6 µM	
Nc1ccc2c(NCCc3ccc(Cl)cc3)ncnc2c1	> 30 µM		> 30 µM	3.4 µM	
O=CNc1ccc2ncnc(NCCc3ccc(Cl)cc3)c2c1	> 30 µM		> 30 µM	> 10 µM	
Clc1ccc(CCNc2ncnc3ccc(Cl)cc23)cc1	> 30 µM		> 30 µM	> 10 µM	
Clc1ccc(CCNc2ncnc3ccc(NCc4ccccc4)cc23)cc1	> 30 µM		> 30 µM	> 10 µM	
Clc1ccc(CCNc2ncnc3ccccc23)cc1	> 30 µM		> 30 µM	0.5 µM	
Clc1ccc(CCNc2ncnc3cc(Cl)ccc23)cc1	> 30 µM		> 30 µM	> 10 µM	
O=[N+]([O-])c1cc2c(NCCc3ccc(Cl)cc3)ncnc2cc1N1CCCCC1	> 30 µM		> 30 µM	> 10 µM	
C[C@@H]1C[C@H]2[C@@H]3CCC4=CC(=O)C=C[C@]4(C)[C@@]3(F)[C@@H](O)C[C@]2(C)[C@@]1(O)C(=O)CO [DEXAMETHASONE]	0.01 µM		0.04 µM	0.005 µM	

The next lines start with results.

IC50 ([1]; Homo sapiens)	IC50 [1]	Molecule	IC50 ([2]; Homo sapiens)	IC50 (T-cell)	IC50 [2]
> 30 µM		CCOc1cc2ncnc(NCCc3ccc(Cl)cc3)c2cc1[N+](=O)[O-]	> 30 µM		
> 30 µM		O=[N+]([O-])c1ccc2c(NCCc3ccc(Cl)cc3)ncnc2c1	> 30 µM	5.6 µM	
> 30 µM		CC(C)(S)[C@@H](N)C(=O)O [PENICILLAMINE]	> 30 µM		
> 30 µM		COc1cc2ncnc(NCCc3ccc(Cl)cc3)c2cc1OC	> 30 µM	1.4 µM	
> 30 µM		Clc1ccc(CCNc2ncnc3ccc(Br)cc23)cc1	> 30 µM	4.8 µM	
> 30 µM		Clc1ccc(CCNc2ncnc3ccc(OCc4ccccc4)cc23)cc1	> 30 µM	> 10 µM	
> 30 µM		Clc1ccc(CCNc2nc(Cl)nc3ccccc23)cc1	> 30 µM	1.2 µM	
> 30 µM		Fc1cc2ncnc(NCCc3ccc(Cl)cc3)c2cc1F	> 30 µM		
> 30 µM		O=[N+]([O-])c1cc2c(NCCc3ccc(Cl)cc3)ncnc2cc1N1CCN(c2ccccc2)CC1	> 30 µM	> 10 µM	
> 30 µM		CS(=O)(=O)N1CCN(c2cc3ncnc(NCCc4ccc(Cl)cc4)c3cc2[N+](=O)[O-])CC1	4.5 µM	4.3 µM	
0.8 µM		O=[N+]([O-])c1cc2c(NCCc3ccc(Cl)cc3)ncnc2cc1N1CCNCC1	12.1 µM	1.1 µM	
1.4 µM		CN1CCN(c2cc3ncnc(NCCc4ccc(Cl)cc4)c3cc2[N+](=O)[O-])CC1	22.1 µM	1.2 µM	
> 30 µM		Cc1nc(NCCc2ccc(Cl)cc2)c2ccccc2n1	> 30 µM	0.2 µM	
> 30 µM		COc1nc(NCCc2ccc(Cl)cc2)c2ccccc2n1	> 30 µM	> 10 µM	
> 30 µM		Oc1ccc2ncnc(NCCc3ccc(Cl)cc3)c2c1	> 30 µM	1.4 µM	
> 30 µM		COc1cc2ncnc(NCCc3ccc(Cl)cc3)c2cc1[N+](=O)[O-]	> 30 µM		
24.8 µM		O=[N+]([O-])c1cc2c(NCCc3ccc(Cl)cc3)ncnc2cc1N1CCOCC1	22.5 µM	8.3 µM	
> 30 µM		Clc1ccc(CCNc2nc(-c3ccccc3)nc3ccccc23)cc1	> 30 µM	> 10 µM	
	> 30 µM	AURANOFIN			> 30 µM
0.5 µM		COc1ccc(C2CNC(=O)C2)cc1OC1CCCC1 (centres undefined) [ROLIPRAM]	> 30 µM	> 10 µM	
19.4 µM		CN(C)c1cc2ncnc(NCCc3ccc(Cl)cc3)c2cc1[N+](=O)[O-]	27.3 µM	8.6 µM	
